Test results published in paper PMC4360222 (International Journal of Neuropsychopharmacology, 2015).
Read-outs that look alike come from different tables or passages of the source.

What was measured:
D2 receptors = conditions: ref Clark et al., 1985; Burris et al., 2002; Tadori et al., 2005; cited from earlier work
[1] = biological target: T1, D2-like autoreceptors (rat brain striatal minces, [3H]-DA synthesis) (Rattus norvegicus, UniProt P61169); experiment: cell-based
[2] = biological target: T1, D2-like autoreceptors (rat brain striatal minces, [3H]-DA synthesis)

T1 sequence (P61169 1-415 isoform P61169-2): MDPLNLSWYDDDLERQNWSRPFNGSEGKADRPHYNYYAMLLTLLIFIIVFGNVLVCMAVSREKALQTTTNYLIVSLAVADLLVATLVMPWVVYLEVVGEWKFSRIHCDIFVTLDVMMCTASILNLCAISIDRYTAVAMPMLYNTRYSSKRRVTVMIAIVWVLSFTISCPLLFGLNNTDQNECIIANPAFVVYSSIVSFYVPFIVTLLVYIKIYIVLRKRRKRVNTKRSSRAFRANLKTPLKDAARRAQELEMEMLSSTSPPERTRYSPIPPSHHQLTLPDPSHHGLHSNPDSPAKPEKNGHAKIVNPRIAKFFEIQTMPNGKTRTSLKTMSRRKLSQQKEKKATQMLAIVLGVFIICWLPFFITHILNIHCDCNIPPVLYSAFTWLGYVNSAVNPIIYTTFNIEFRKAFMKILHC

| Compound | reported affinity for D2 receptors (D2 receptors) | Emax ([1]; read-out: Emax, inhibition of [3H]-dopamine synthesis, basal 2mM K+) [%] | Emax ([1]; read-out: Emax, inhibition of [3H]-dopamine synthesis, stimulated 15mM K+) [%] | Emax ([1]; read-out: maximal effect on DA synthesis, 2mM K+) [%] | Emax ([1]; read-out: maximal effect on DA synthesis, 15mM K+) [%] | blockade of QUIN decrease of DA synthesis by antagonist ([2]; 2mM K+, data not shown) | reversal of decrease in DA synthesis elicited by 1nM S-(-)-PPP ([2]; sulpiride 100nM) | blockade of effect of ARI 1 µM on DA synthesis ([2]; sulpiride 1 µM, 2mM K+) | blockade of inhibitory effect of ARI 10nM on DA synthesis ([2]; sulpiride 1 µM, 2mM K+) |
| --- | --- | --- | --- | --- | --- | --- | --- | --- | --- |
| CCCN1CCC[C@@H](c2cccc(O)c2)C1 [Preclamol (S-(-)-PPP), (-)-3-(3-hydroxyphenyl)-N-n-propylpiperidine] | high-nanomolar/low-micromolar range | 34 | 31 | -34 | -31 |  |  |  |  |
| CCN1CCC[C@H]1CNC(=O)c1cc(S(N)(=O)=O)ccc1OC [sulpiride, (S)-(-)-sulpiride] |  |  |  |  |  | totally blocked | completely reversed | partially blocked | fully eliminated |
